# Values quoted from earlier work in patent US4303671A, “Albumin stabilized prostacyclin” (priority 1980, dated 1981).
# Tests used:
# [1] = tested on: blood platelet aggregation; details: at the time of its discovery
# [2] = human plasma and human serum albumin; FASEB Meeting abstract, 1980
# [3] = under acid conditions, including at physiological pH's
# [4] = kept in whole blood or plasma; The Lancet, July 29, 1978
# [5] = FEBS Letters 82:321-324 (1977)
stabilization by albumin (in words) [2],chemical stability (in words) [3],stabilization of thromboxane A2 by albumin (in words) [5],SMILES,potency to inhibit blood platelet aggregation (in words) [1],protection against degradation (in words) [4]
albumin stabilizes prostacyclin,spontaneously decomposes to 6-oxo-PGF1α,,"CCCCC[C@H](O)/C=C/[C@@H]1[C@H]2C/C(=C/CCCC(=O)O)O[C@H]2C[C@H]1O [prostacyclin, 9-deoxy-6,9α-epoxy-(5Z)-5,6-didehydro-PGF1]",most potent prostaglandin-related substance effective to inhibit blood platelet aggregation,probably protected against degradation when kept in whole blood or plasma
,,ability to stabilize thromboxane A2,CCCCC[C@H](O)/C=C/[C@H]1O[C@H]2C[C@H](O2)[C@@H]1C/C=C\CCCC(=O)O [thromboxane A2],,
